27 molecules from patent US8927717B1, “Thiochromeno[2,3-c]quinolin-12-one derivatives, preparation method and application thereof” (National Defense Medical Center, priority 2014, dated 2015) can be followed below.

The subject of one data set is 60 cancer cell lines. Description: NCI 60-cell screen, SRB, whole panel (mean, delta, range). The format is cell-based. Conditions: 10^−5 molar, 48 hours, SRB; for Growth percent, Delta: delta over the cell panel; for Growth percent, Range: range over the cell panel.

Usually melting point stands for the temperature of the solid-liquid transition.

Each structure is given as a SMILES string.

Take `COc1ccccc1CNc1nc2ccccc2c2c(=O)c3cc(Cl)ccc3sc12` [Compound N28, 10-Chloro-6-((2-methoxybenzyl)amino)-12H-thiochromeno[2,3-c]quinolin-12-one]: the melting point is 223 to 224 °C. The same measure, in the same setting: under `O=c1c2cc(Cl)ccc2sc2c(N3CCC(Cc4ccccc4)CC3)nc3ccccc3c12` [Compound 17, 6-(4-Benzylpiperidin-1-yl)-10-chloro-12H-thiochromeno[2,3-c]quinolin-12-one] stands 184 to 185 °C. The molecule `O=c1c2cc(Cl)ccc2sc2c(N3CCC(CCCC4CCNCC4)CC3)nc3ccccc3c12` [Compound 19, 10-Chloro-6-(4-(3-(piperidin-4-yl)propyl)piperidin-1-yl)-12H-thiochromeno[2,3-c]quinolin-12-one] registered a melting point of 164 to 165 °C. For the molecule `O=C(O)c1c(Sc2ccc(Cl)cc2)c(O)nc2ccccc12` [Compound 2, 3-((4-Chlorophenyl)thio)-2-hydroxyquinoline-4-carboxylic acid], the melting point fell in the range of 306 to 308 °C. In the data set with 60 cancer cell lines, the “Growth percent, Delta” value is listed as 33.20% and the “Growth percent, Range” value stood at 55.29%. For the molecule `CCCNc1nc2ccccc2c2c(=O)c3cc(Cl)ccc3sc12` [Compound N3, 10-Chloro-6-propylamino-12H-thiochromeno[2,3-c]quinolin-12-one], the melting point was in the range of 178 to 179 °C. Consider `CN1CCN(c2nc3ccccc3c3c(=O)c4cc(Cl)ccc4sc23)CC1` [Compound 8, 10-Chloro-6-(4-methylpiperazin-1-yl)-12H-thiochromeno[2,3-c]quinolin-12-one], for which the melting point lay in the range of 212 to 214 °C. In addition, in the data set on 60 cancer cell lines, the “Growth percent, Delta” value was determined as 68.64% and the “Growth percent, Range” value amounted to 92.74%. The like results for `CN(C)c1nc2ccccc2c2c(=O)c3cc(Cl)ccc3sc12` [Compound 6, 10-Chloro-6-dimethylamino-12H-thiochromeno[2,3-c]quinolin-12-one] were, in that order, 194 to 195 °C, 65.30% and 93.93%. As for `O=c1c2cc(Cl)ccc2sc2c(NCc3cccs3)nc3ccccc3c12` [Compound N23, 10-Chloro-6-((thiophen-2-ylmethyl)amino)-12H-thiochromeno[2,3-c]quinolin-12-one], the melting point is 178 to 180 °C. Still for that read-out and setting: next, `O=c1c2cc(Cl)ccc2sc2c(NC3Cc4ccccc4C3)nc3ccccc3c12` [Compound N20, 10-Chloro-6-((2,3-dihydro-1H-inden-2-yl)amino)-12H-thiochromeno[2,3-c]quinolin-12-one]: 251 to 252 °C. Molecule `O=c1c2cc(Cl)ccc2sc2c(N3CCN(CCO)CC3)nc3ccccc3c12` [Compound 10, 10-Chloro-6-(4-(2-hydroxyethyl)piperazin-1-yl)-12H-thiochromeno[2,3-c]quinolin-12one] had a melting point of 211 to 213 °C. Besides, in the data set with 60 cancer cell lines, the “Growth percent, Delta” value is 48.59% and the “Growth percent, Range” value came to 83.73%. `COc1ccc(CNc2nc3ccccc3c3c(=O)c4cc(Cl)ccc4sc23)cc1OC` [Compound N29, 10-Chloro-6-((3,4-dimethoxybenzyl)amino)-12H-thiochromeno[2,3-c]quinolin-12-one]: the melting point was in the range of 251 to 252 °C. Still for that read-out and setting: under `O=c1c2cc(Cl)ccc2sc2c(N3CCCC3)nc3ccccc3c12` [Compound 20, 10-Chloro-6-(pyrrolidin-1-yl)-12H-thiochromeno[2,3-c]quinolin-12-one] stands 170 to 171 °C.

On to `O=c1c2cc(Cl)ccc2sc2c(N3CCC(N4CCCCC4)CC3)nc3ccccc3c12` [Compound 18, 6-([1,4′-Bipiperidin]-1′-yl)-10-chloro-12H-thiochromeno[2,3-c]quinolin-12-one], for which the melting point is 187 to 189 °C. Consider `NC(N)=Nc1nc2ccccc2c2c(=O)c3cc(Cl)ccc3sc12` [Compound N33, 2-(10-Chloro-12-oxo-12H-thiochromeno[2,3-c]quinolin-6-yl)guanidine], for which the melting point was 370 °C (dec.). Same read-out and setting: under `O=c1c2cc(Cl)ccc2sc2c(NCC3CCCCC3)nc3ccccc3c12` [Compound N24, 10-Chloro-6-((cyclohexylmethyl)amino)-12H-thiochromeno[2,3-c]quinolin-12-one] stands 165 to 166 °C. As to `CCCCNc1nc2ccccc2c2c(=O)c3cc(Cl)ccc3sc12` [Compound N4, 6-(Butylamino)-10-chloro-12H-thiochromeno[2,3-c]quinolin-12-one], the melting point fell in the range of 147 to 149 °C.

For `O=c1c2cc(Cl)ccc2sc2c(NCc3ccccn3)nc3ccccc3c12` [Compound N26, 10-Chloro-6-((pyridin-2-ylmethyl)amino)-12H-thiochromeno[2,3-c]quinolin-12-one], the melting point lay in the range of 187 to 189 °C. Molecule `O=c1c2cc(Cl)ccc2sc2c(N3CCN(c4ccccc4)CC3)nc3ccccc3c12` [Compound 12, 10-Chloro-6-(4-phenylpiperazin-1-yl)-12H-thiochromeno[2,3-c]quinolin-12-one] came in with a melting point of 236 to 237 °C. Besides, in the data set on 60 cancer cell lines, the “Growth percent, Delta” value turned out to be 35.45% and the “Growth percent, Range” value is reported as 60.10%.

In the case of `O=c1c2cc(Cl)ccc2sc2c(NN3CCCCC3)nc3ccccc3c12` [Compound N34, 10-Chloro-6-(piperidin-1-ylamino)-12H-thiochromeno[2,3-c]quinolin-12-one], the melting point is 180 to 181 °C. Still for that read-out and setting: under `O=c1c2cc(Cl)ccc2sc2c(NC3CCN(Cc4ccccc4)CC3)nc3ccccc3c12` [Compound N22, 6-((1-Benzylpiperidin-4-yl)amino)-10-chloro-12H-thiochromeno[2,3-c]quinolin-12-one] stands 194 to 196 °C; under `CCN1CCN(c2nc3ccccc3c3c(=O)c4cc(Cl)ccc4sc23)CC1` [Compound 9, 10-Chloro-6-(4-ethylpiperazin-1-yl)-12H-thiochromeno[2,3-c]quinolin-12-one], 196 to 198 °C. Molecule `O=c1c2cc(Cl)ccc2sc2c(O)nc3ccccc3c12` [Compound 4, 10-Chloro-6-hydroxy-12H-thiochromeno[2,3-c]quinolin-12-one] displayed a melting point greater than 410 °C. Also, in the data set with 60 cancer cell lines, the “Growth percent, Delta” value worked out at 30.54% and the “Growth percent, Range” value came to 50.31%. In the case of `O=C1CCCCN1c1nc2ccccc2c2c(=O)c3cc(Cl)ccc3sc12` [Compound 21, 10-chloro-6-(2-oxopiperidin-1-yl)-12H-thiochromeno[2,3-c]quinolin-12-one], the melting point lay in the range of 258 to 261 °C. Same read-out and setting: next, `CC(C)CNc1nc2ccccc2c2c(=O)c3cc(Cl)ccc3sc12` [Compound N5, 10-Chloro-6-isobutylamino-12H-thiochromeno[2,3-c]quinolin-12-one]: 159 to 160 °C; `O=c1c2cc(Cl)ccc2sc2c(N3CCCCC3)nc3ccccc3c12` [Compound 15, 10-Chloro-6-(piperidin-1-yl)-12H-thiochromeno[2,3-c]quinolin-12-one]: 187 to 188 °C. Same read-out and setting: under `O=c1c2cc(Cl)ccc2sc2c(N3CCSCC3)nc3ccccc3c12` [Compound 14, 10-Chloro-6-thiomorpholino-12H-thiochromeno[2,3-c]quinolin-12-one] stands 219 to 220 °C; under `O=c1c2cc(Cl)ccc2sc2c(N3CCC(O)CC3)nc3ccccc3c12` [Compound 16, 10-Chloro-6-(4-hydroxypiperidin-1-yl)-12H-thiochromeno[2,3-c]quinolin-12-one], 224 to 225 °C.
